Laboratory results taken from publication PMC8113459, “Selective inhibition of cullin 3 neddylation through covalent targeting DCN1 protects mice from acetaminophen-induced liver toxicity” (Nature Communications, 2021).

What was measured:
DCN1 [1] = target: T1, DCN1 (Homo sapiens, UniProt Q96GG9); assay: Intact-protein mass spectrometric analysis of covalent complex formation, Method A; format: binding; conditions: for Percentage of the formation of covalent complex with DCN1 protein: 37 °C
Description: MassHunter Qualitative Analysis software (Agilent) was used to analyze the data. Intact protein masses were obtained using the maximum entropy deconvolution algorithm. The mass spectrometry data in Supplementary Figs. 1–11 were generated by Method A.
Target sequence in this assay (Q96GG9 58-259 limits assumed): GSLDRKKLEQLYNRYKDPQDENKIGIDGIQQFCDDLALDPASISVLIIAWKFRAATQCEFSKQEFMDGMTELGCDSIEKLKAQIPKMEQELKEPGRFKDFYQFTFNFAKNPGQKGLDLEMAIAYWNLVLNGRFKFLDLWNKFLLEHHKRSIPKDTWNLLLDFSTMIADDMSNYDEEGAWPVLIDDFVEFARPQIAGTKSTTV

DCN1 [2] = target: T1, DCN1; assay: Cocrystal structures of lyso-DCN1-inhibitor complexes; parameters: to DCN1 residues 62–251; His6 (N); TEV cleavage site (N); lysozyme residues 1–164 with C54T, C97A, A146T, D127A, R154A (fusion partner, N-terminal of DCN1); made in house; host or cells: Rosetta 2 cells (E. coli)
Description: Lysozyme–DCN1 gene was synthesized fusing lysozyme residues 1–164, containing mutations (C54T, C97A, A146T, D127A, and R154A), to DCN1 residues 62–251. Ligation independent cloning was utilized to clone the fused gene into an N-terminal His6–TEV expression vector. The clone was transformed into Rosetta 2 cells, grown in terrific broth at 37 °C, and expressed overnight with 0.4 mM isopropyl β-D-1-thiogalactopyranoside at 20 °C. Pelleted cells were freeze-thawed and lysed in 25 mM HEPES, pH 7.5, 150 mM NaCl, 0.1% β-mercaptoethanol and protease inhibitors. Cellular debris was removed via centrifugation. The supernatant was loaded onto a Ni-NTA (Qiagen) column at 4 °C. The column was washed with 25 mM HEPES, pH 7.5, 150 mM NaCl, and 20 mM imidazole, then protein eluted with buffer containing 300 mM imidazole. The eluate was applied to a Superdex 200 (GE Healthcare) equilibrated with 25 mM HEPES, pH 7.5, 200 mM NaCl, and 1 mM DTT. The protein was judged to be greater than 95% pure by SDS-PAGE, concentrated to 3.5 mg/mL and stored at −80 °C. Yield was 450 mg/L of expressed media.
Lyso–DCN1 protein was thawed and concentrated to 9.9 mg/mL in 25 mM HEPES, pH 7.5, 200 mM NaCl, and 1 mM DTT. Each compound was incubated with protein in a 1:1.2 protein to compound molar ratio overnight at 4 °C, then spun and setup in sitting drop vapor diffusion experiments. Crystallization drops contained 2 µL of protein–inhibitor solution and 1 µL of well solution. Crystals grew at 20 °C with well solution containing 28–33% PEG 3350 and 200 mM ammonium formate. Crystals were cryoprotected in 25 mM HEPES, pH 7.5, 200 mM NaCl, 30% PEG 3350, and 1 mM DTT.
Diffraction data were collected at a wavelength of 0.9786 Å on the APS LS-CAT 21-ID-G beamline at Argonne National Laboratory. Data were processed using HKL2000[44] and solved via molecular replacement using molrep[45] with two independent search models (lysozyme and DCN1) from PDB ID 5V83. The structures were iteratively fit and refined using Coot[46] and Buster[47]. […]
Target sequence in this assay (Q96GG9 62-251): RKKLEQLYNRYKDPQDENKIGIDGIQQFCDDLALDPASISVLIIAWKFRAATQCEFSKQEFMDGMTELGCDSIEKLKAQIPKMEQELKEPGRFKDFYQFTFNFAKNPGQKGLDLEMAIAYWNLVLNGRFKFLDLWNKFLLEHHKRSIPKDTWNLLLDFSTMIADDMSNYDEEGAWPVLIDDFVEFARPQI

Solubility = format: physicochemical
[3] = 10 min incubation, 1.2-fold excess inhibitor

covalent complex formation / reaction kinetics with DCN1 protein (in words) (DCN1 [1]) | Percentage of the formation of covalent complex with DCN1 protein (DCN1 [1]; [3]) | Percentage of the formation of covalent complex with DCN1 protein (DCN1 [1]; 60 min (1 h) incubation) | covalent bond to Cys115 of DCN1 in the cocrystal structure (DCN1 [2]) | Percentage of the formation of covalent complex with DCN1 protein (DCN1 [1]; 180 min (3 h) incubation) | Percentage of the formation of covalent complex with DCN1 protein (DCN1 [1]; 720 min (12 h) incubation) | solubility (Solubility) | SMILES
slower reaction kinetics than 3 or 5 | 0% | 0% | no covalent bond formed |  |  |  | CCC(=O)N[C@@H](Cc1nc2ccc(C(C)C)cc2s1)C(=O)N[C@H](CNC(=O)/C=C/CN1CCOCC1)C1CCCCC1 [compound 4]
slow reaction kinetics | 0% |  |  | 15% | 70% | poor solubility | CCC(=O)N[C@@H](Cc1nc2ccc(C(C)C)cc2s1)C(=O)N[C@H](CNC(=O)CCl)C1CCCCC1 [compound 2]
slow reaction kinetics | 0% |  |  |  | 40% | poor solubility | C=CC(=O)NC[C@@H](NC(=O)[C@H](Cc1nc2ccc(C(C)C)cc2s1)NC(=O)CC)C1CCCCC1 [compound 3]
